Legend:
[1] = target: T1, human PFKFB3 (Homo sapiens, UniProt Q16875); assay: Biochemical throughput screening of NCI Diversity Set II and steady-state inhibition kinetics; design: 443 amino acid residues of the full-length protein of 520 residues; 6xHis; made in house; settings: against F-6-P and ATP
Method: To generate a framework of actives and non-actives for virtual screening, a throughput study of 1,364 NCI compounds was carried out. The inhibition extent of 10 μM of each compound, in substrate saturation conditions, was quantified and the results of the top 50 compounds are shown in FIG. 1. An arbitrary cutoff was chosen at 75% inhibition to describe compounds that were to be considered ‘potential’ actives. Based on this cutoff, 10 compounds were identified from the original 1,364.
To select the true positives, the 10 potential actives were subsequently tested for specificity for the F-6-P site, because the virtual screening was targeted for the F-6-P site. Using conventional steady state inhibition kinetics, 6 compounds were selected as the ‘true actives’ (T-actives), and these six compounds are shown in FIG. 3.
The recombinant human PFKFB3 was expressed and purified as previously described.[20] The 1,364 individual compounds of NCI's Diversity Set II were acquired from the NCI.
The 2-kinase activity assay for throughput screening was performed using a F-2,6-P2 assay modified for 96-well plates from the conventional method.[21] […] The reactions of seconds step were started by adding 0.5 mM sodium pyrophosphate (PPi) and were then measured for changes in absorbance at 340 nm over a period of 30 minutes. […]

[2] = tested on: MCF7; assay: Cell growth inhibition; type: cell-based; settings: Homo sapiens
Method: Cell growth inhibition was determined by an XTT-based in-vitro toxicology assay (Sigma-Aldrich) or trypan blue staining. Cells were plated at a density of 3.5×10^4 per well in a 24-well plate in DMEM containing 10% FCS. These cells were allowed to attach for 24 hours, and the media were replaced with fresh media containing either vehicle (dimethyl sulfoxide) or appropriate concentrations of test compounds. After 36 hours of incubation with either vehicle or compounds, cells were trypsinized and cell viability was determined by the trypan blue exclusion assay using a hemacytometer. For the XTT assay, cells were seeded into 96-well cell culture plates at a density of 0.6×10^4 per well. After the appropriate treatment described above, cells were incubated with 0.1 mg/ml of 2,3-bis(2-methoxy-4-nitro-5-sulfophenyl)-5-[(phenylamino)carbonyl]-2H-tetrazolium hydroxide (XTT) for 4 hours, and then cell number was determined by the absorbance at 470 nm, which is proportional to the number of cells that remained attached to the plate. GI50s were calculated as the inhibitor concentration needed for 50% of vehicle-treated cell growth. The appearance of apoptotic or necrotic cells was determined by flow cytometric analysis of cells double stained with Annexin V-FITC and propidium iodide (PI). […]

[3] = tested on: T47D; assay: Cell growth inhibition; type: cell-based; settings: Homo sapiens
Method: (§1) HeLa and T47D cell lines were cultured in a 10% CO2 humidified atmosphere at 37° C. as exponentially growing monolayers in Dulbecco's modified Eagle's medium (DMEM) with glutamax (Invitrogen), supplemented with 10% fetal calf serum (Invitrogen) and penicillin/streptomycin (100 U/ml and 100 μg/ml). The human cervical carcinoma cell line, HeLa, was kindly provided by Dr. J. Kim (Louisiana State University) and the human breast carcinoma cell line, T47D, was obtained from the American Type Culture Collection (Manassas, Va.).
Cell growth inhibition was determined by an XTT-based in-vitro toxicology assay (Sigma-Aldrich) or trypan blue staining. […] After 36 hours of incubation with either vehicle or compounds, cells were trypsinized and cell viability was determined by the trypan blue exclusion assay using a hemacytometer. […] After the appropriate treatment described above, cells were incubated with 0.1 mg/ml of 2,3-bis(2-methoxy-4-nitro-5-sulfophenyl)-5-[(phenylamino)carbonyl]-2H-tetrazolium hydroxide (XTT) for 4 hours, and then cell number was determined by the absorbance at 470 nm, which is proportional to the number of cells that remained attached to the plate. […] The appearance of apoptotic or necrotic cells was determined by flow cytometric analysis of cells double stained with Annexin V-FITC and propidium iodide (PI). […]

[4] = target: T1, human PFKFB3; assay: 2-Kase assay and kinetic analysis (enzyme-coupled Fru-2,6-BP assay); type: biochemical; design: 443 amino acid residues of the full-length protein of 520 residues; 6xHis; made in house; host or cells: Escherichia coli BL21(DE3) pLysS; settings: for Inhibition (type): versus Fru-6-P
Method: To determine steady-state initial reaction rates, the 2-Kase reactions were performed first and the Fru-2,6-BP produced was measured by a conventional enzyme-coupled kinetics assay as described previously. The compounds, N4A and RBC2 came from the National Cancer Institute as indicated in Example 1. […] Initial rates of decrease in absorbance (Abs) at 340 nm were corrected with the rate of the control reaction in which no Fru-2,6-BP was present. Negative controls were carried out in the absence of enzyme and positive controls indicate the reaction in the presence of enzyme without inhibitor compounds. […] IC50 values were determined in quadruplicate. For the kinetic studies, concentrations of one of substrate and inhibitor were varied, and decrease in absorbance at 340 nm was measured. The inhibition patterns were analyzed using the program written by Cleland, in which Ki is the dissociation constants for the inhibitor from enzyme-inhibitor complex. For Selectivity studies, the 2-Kase assays were performed first and the F-2,6-P2 produced was measured by an enzyme coupled kinetics assay as described above. The His6-tagged PFKFB isoforms, PFKFB1, PFKFB2, and PFKFB4 were expressed in Escherichia coli C41(DE3) and purified using Ni-NTA affinity columns.

[5] = tested on: HeLa cells; assay: Flow-cytometric analysis of cell death (Annexin V-FITC / PI); type: cell-based, human
Method: (§2) Cell growth inhibition was determined by an XTT-based in-vitro toxicology assay (Sigma-Aldrich) or trypan blue staining. Cells were plated at a density of 3.5×10^4 per well in a 24-well plate in DMEM containing 10% FCS. These cells were allowed to attach for 24 hours, and the media were replaced with fresh media containing either vehicle (dimethyl sulfoxide) or appropriate concentrations of test compounds. After 36 hours of incubation with either vehicle or compounds, cells were trypsinized and cell viability was determined by the trypan blue exclusion assay using a hemacytometer. For the XTT assay, cells were seeded into 96-well cell culture plates at a density of 0.6×10^4 per well. After the appropriate treatment described above, cells were incubated with 0.1 mg/ml of 2,3-bis(2-methoxy-4-nitro-5-sulfophenyl)-5-[(phenylamino)carbonyl]-2H-tetrazolium hydroxide (XTT) for 4 hours, and then cell number was determined by the absorbance at 470 nm, which is proportional to the number of cells that remained attached to the plate. GI50s were calculated as the inhibitor concentration needed for 50% of vehicle-treated cell growth. The appearance of apoptotic or necrotic cells was determined by flow cytometric analysis of cells double stained with Annexin V-FITC and propidium iodide (PI). Apoptotic and necrotic cells were distinguished on the basis of double-labeling for Annexin V-FITC (Sigma-Aldrich) and PI, a membrane-impermeable DNA stain. Floating and freshly trypsinized cells were pooled, washed twice in binding buffer, and processed following manufacturer's instructions. The fluorescence of samples were analyzed by flow cytometry (FACSCalibur®, Becton Dickinson Immunocytometry, San Jose, Calif.) using the CellQuest (BD Bioscience, Immunocytometry Systems, San Jose, Calif., USA) software.

[6] = target: T2, PFKFB4 (Homo sapiens, UniProt Q16877); assay: 2-Kase selectivity assay on PFKFB isoforms; type: biochemical; settings: at twice the IC50 for PFKFB3 (N4A=6 μM, YN1=1.3 μM)
T2 construct: His6; made in house; host or cells: Escherichia coli C41(DE3)
T2 sequence (Q16877 whole entry, canonical isoform): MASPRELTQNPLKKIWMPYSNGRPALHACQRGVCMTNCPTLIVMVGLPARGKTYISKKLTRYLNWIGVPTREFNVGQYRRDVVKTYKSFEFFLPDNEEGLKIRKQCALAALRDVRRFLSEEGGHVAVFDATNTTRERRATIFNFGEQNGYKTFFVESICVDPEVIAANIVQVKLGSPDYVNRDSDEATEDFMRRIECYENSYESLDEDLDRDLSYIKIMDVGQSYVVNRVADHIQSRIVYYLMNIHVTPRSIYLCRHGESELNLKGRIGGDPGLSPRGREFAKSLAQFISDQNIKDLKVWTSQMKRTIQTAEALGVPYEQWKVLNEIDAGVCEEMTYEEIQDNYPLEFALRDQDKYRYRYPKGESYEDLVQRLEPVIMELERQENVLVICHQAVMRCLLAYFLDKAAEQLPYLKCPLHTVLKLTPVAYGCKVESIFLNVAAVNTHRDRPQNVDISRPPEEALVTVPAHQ
Method: (§3) To determine steady-state initial reaction rates, the 2-Kase reactions were performed first and the Fru-2,6-BP produced was measured by a conventional enzyme-coupled kinetics assay as described previously. The compounds, N4A and RBC2 came from the National Cancer Institute as indicated in Example 1. […] Initial rates of decrease in absorbance (Abs) at 340 nm were corrected with the rate of the control reaction in which no Fru-2,6-BP was present. Negative controls were carried out in the absence of enzyme and positive controls indicate the reaction in the presence of enzyme without inhibitor compounds. The percentage of Inhibitory activity was calculated according to the formula: % inhibition=100×[1−(Absnegative control−Abscompound)/(Absnegative control−Abspositive control)]. IC50 values were determined in quadruplicate. For the kinetic studies, concentrations of one of substrate and inhibitor were varied, and decrease in absorbance at 340 nm was measured. The inhibition patterns were analyzed using the program written by Cleland, in which Ki is the dissociation constants for the inhibitor from enzyme-inhibitor complex. For Selectivity studies, the 2-Kase assays were performed first and the F-2,6-P2 produced was measured by an enzyme coupled kinetics assay as described above. The His6-tagged PFKFB isoforms, PFKFB1, PFKFB2, and PFKFB4 were expressed in Escherichia coli C41(DE3) and purified using Ni-NTA affinity columns.

[7] = target: T3, PFKFB1 (Homo sapiens, UniProt P16118); assay: 2-Kase selectivity assay on PFKFB isoforms; type: biochemical; settings: at twice the IC50 for PFKFB3 (N4A=6 μM, YN1=1.3 μM)
T3 construct: His6; made in house; host or cells: Escherichia coli C41(DE3)
T3 sequence (P16118 whole entry, canonical isoform): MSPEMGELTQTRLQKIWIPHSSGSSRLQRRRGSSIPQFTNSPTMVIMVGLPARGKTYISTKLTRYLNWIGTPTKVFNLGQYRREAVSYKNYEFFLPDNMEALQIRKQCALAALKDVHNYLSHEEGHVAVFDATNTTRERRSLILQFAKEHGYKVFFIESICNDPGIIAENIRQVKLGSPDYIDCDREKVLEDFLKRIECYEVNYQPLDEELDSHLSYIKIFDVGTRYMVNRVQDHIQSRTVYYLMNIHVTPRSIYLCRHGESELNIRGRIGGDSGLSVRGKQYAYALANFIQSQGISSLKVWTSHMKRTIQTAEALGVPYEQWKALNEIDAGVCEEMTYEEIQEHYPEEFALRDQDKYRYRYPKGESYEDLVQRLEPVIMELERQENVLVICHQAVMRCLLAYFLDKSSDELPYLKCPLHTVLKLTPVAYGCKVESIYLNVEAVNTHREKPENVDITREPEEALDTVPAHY
Method: as §3

[8] = target: T4, PFKFB2 (Homo sapiens, UniProt O60825); assay: 2-Kase selectivity assay on PFKFB isoforms; type: biochemical; settings: at twice the IC50 for PFKFB3 (N4A=6 μM, YN1=1.3 μM)
T4 construct: His6; made in house; host or cells: Escherichia coli C41(DE3)
T4 sequence (O60825 whole entry, canonical isoform): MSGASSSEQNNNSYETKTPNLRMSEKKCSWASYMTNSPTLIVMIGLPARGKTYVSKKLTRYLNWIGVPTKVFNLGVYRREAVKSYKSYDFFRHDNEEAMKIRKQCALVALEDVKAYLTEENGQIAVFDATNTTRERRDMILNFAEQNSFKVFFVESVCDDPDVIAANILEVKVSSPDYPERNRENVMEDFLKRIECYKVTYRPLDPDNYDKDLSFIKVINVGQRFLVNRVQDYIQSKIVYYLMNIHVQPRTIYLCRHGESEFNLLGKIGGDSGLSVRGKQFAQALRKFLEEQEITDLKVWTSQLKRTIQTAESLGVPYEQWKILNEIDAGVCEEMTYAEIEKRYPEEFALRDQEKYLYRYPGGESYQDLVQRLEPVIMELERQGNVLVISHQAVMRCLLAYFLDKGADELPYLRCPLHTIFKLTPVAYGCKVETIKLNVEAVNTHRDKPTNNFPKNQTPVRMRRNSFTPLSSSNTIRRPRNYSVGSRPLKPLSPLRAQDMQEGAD
Method: as §3

[9] = tested on: HeLa cells; assay: Soft agar colony formation; type: cell-based, human
Method: HeLa cell colony formation was determined by soft agar assay. Cells (2×10^3) were mixed in DMEM medium containing 0.35% agarose and varying concentrations of N4A or YN1. Then the cell mixture was added on a layer of 0.6% concentration of bottom agar in 24 well plate and allowed to grow for three weeks at 37° C. under 5% CO2. Fresh medium containing the inhibitors or vehicle (DMSO) was changed every four days. Colonies of 50 cells or more were counted after three weeks. The experiments were repeated at least five times.

[10] = tested on: HeLa cells; assay: Cellular Fru-2,6-BP level determination; type: cell-based, human; settings: 25 μM, 8 hour exposure
Method: HeLa cells were plated at a density of 2.5×10^5 in a 6-well plate in DMEM containing 10% FCS. The media were replaced with fresh DMEM containing either vehicle (dimethyl sulfoxide) or 25 μM of inhibitor the following day. After 0, 4, 8, 12, 24, or 48 hours of incubation with each inhibitor, media samples were collected for measuring the lactate secretion levels using a lactate oxidase-based assay kit (Sigma-Aldrich), and the lactate concentration was normalized to the total cellular protein concentration. The Fru-2,6-BP level was determined with collected cells at times of 0, 4, 8, 12, 24, or 48 hours after the treatment, using the method described previously.

[11] = tested on: HeLa and T47D cells; assay: Cell growth inhibition (XTT or trypan blue); type: cell-based, human; settings: for cell survival compared to unexposed cells: 25 μM
Method: as §1
as §2, with “Apoptotic and necrotic cells were distinguished on the basis of double-labeling for Annexin V-FITC (Sigma-Aldrich) and PI, a membrane-impermeable DNA stain. Floating and freshly trypsinized cells were pooled, washed twice in binding buffer, and processed following manufacturer's instructions.” left out

T1 sequence (Q16875 whole entry): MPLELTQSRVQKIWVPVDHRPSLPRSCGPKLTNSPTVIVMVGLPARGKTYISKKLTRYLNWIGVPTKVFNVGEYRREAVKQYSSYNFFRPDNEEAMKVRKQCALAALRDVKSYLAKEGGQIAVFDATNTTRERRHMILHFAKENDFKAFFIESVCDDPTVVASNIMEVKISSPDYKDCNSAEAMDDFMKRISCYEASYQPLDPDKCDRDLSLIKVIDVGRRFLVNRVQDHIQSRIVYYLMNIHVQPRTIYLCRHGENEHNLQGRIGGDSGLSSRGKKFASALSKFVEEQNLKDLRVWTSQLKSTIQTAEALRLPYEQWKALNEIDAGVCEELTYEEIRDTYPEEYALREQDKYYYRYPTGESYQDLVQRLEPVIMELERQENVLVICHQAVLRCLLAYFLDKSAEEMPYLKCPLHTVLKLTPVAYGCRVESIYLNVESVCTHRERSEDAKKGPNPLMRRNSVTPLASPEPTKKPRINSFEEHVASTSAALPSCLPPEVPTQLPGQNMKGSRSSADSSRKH

inhibition pattern [1] | GI50 [2] | GI50 [3] | GI50 ([11]; Homo sapiens, 36 h, cell line not stated in Table 1 (HeLa and T47D tested)) | Structure (SMILES) | Inhibition (type) [4] | type of cell death at low concentration ([5]; 25 μM) | type of cell death induced ([5]; 25 μM and 50 μM) | type of cell death at higher concentration ([5]; 50 μM) | percent inhibition of PFKFB4 [6] | percent inhibition of PFKFB1 [7] | percent inhibition of PFKFB2 [8] | inhibition at 25 µM ([9]; Homo sapiens, 504 h, soft agar, 25 μM, 3 weeks, read-out: colony formation inhibited) | effect on colony formation ([9]; soft agar, 25, 50 and 100 μM) | reduction of Fru-2,6-BP (ratio to control) [10] | cell survival compared to unexposed cells [11] | inhibition at 10 µM ([4]; 10 μM, substrate-saturating conditions, not affected by 0.1% Tween-20) | IC50 ([4]; PFKFB3 2-kinase activity) | Ki ([4]; competitive against Fru-6-P)
competitive inhibition | 4400 nM | 3500 nM |  | CCOC(=O)C=C(C)Sc1cc(O)c2ccccc2c1O (stereo in doubt) [RBC2, (Z)-ethyl 3-((1,4-dihydroxynaphthalen-2-yl)thio)but-2-enoate] | Competitive |  |  |  |  |  |  |  |  |  |  |  |  | 
 |  |  |  | O=c1cc(-c2ccc(O)cc2)oc2c(O)c(O)c(O)c(O)c12 [Compound N4A, 5,6,7,8-tetrahydroxy-2-(4-hydroxyphenyl)chromene-4-one] | competitive inhibitor against Fru-6-P | cells were found to be prone to apoptosis | induced both apoptotic and necrotic cell death | death by necrosis was significantly increased | less than 50% | less than 50% | less than 50% | 64% | significantly inhibited colony formation | approximately 20% | significant reduction in cell survival | > 65% | 2970 ± 160 nM | 1290 ± 260 nM
 |  |  | 2700 nM | CCOC(=O)c1cc2ccc(O)cc2oc1=O [YZ9, ethyl 7-hydroxy-2-oxochromene-3-carboxylate] |  |  |  |  |  |  |  |  |  |  | significant reduction in cell survival |  |  | 
